Consider 29 molecules from patent US20250049776A1, “AUTOPHAGY INDUCING COMPOUNDS AND USES THEREOF, IN PARTICULAR FOR A SYSTEMIC TREATMENT OF DISEASES AND CONDITIONS” (Samsara Therapeutics Inc., priority 2021, published 2025).

Where two headings read alike, the source gives them in different places.

The subject of this assay is Human osteosarcoma U20S cells. The assay can be described thus: Assay to measure lysosome and autolysosome formation (acidic vesicle formation, LysoView/LysoTracker staining). The assay is classed as cell-based. The settings on record: Homo sapiens, U2OS cells, concentration of 0.8 μM. As to the method: Lysosomes play a fundamental role in the autophagic pathway by fusing with autophagosomes and creating ‘autolysosomes’ in order to digest their contents. Stimulation of lysosome and autolysosome formation by a compound is indicative of a stimulation of autophagy. The ability of compounds to stimulate lysosome and autolysosome formation, and thus autophagy, in live cells was assessed via fluorescent microscopy using various fluorescent stains for labelling and tracking acidic organelles (including lysosomes and autolysosomes) such as: LysoView™ 650 (70059 and 70059-T, Biotium), LysoViewTM633 (70058 and 70058-T, Biotium) and LysoTracker™ Deep Red (L12492, ThermoFisher Scientific). The cellular phenotype was quantitatively assessed for the induction of acidic vesicle formation and compared to a non-treated control, thus providing a measure of the ability of the compound under investigation to stimulate autophagy.
Representative procedure using LysoView™633 dye or LysoTracker™ Deep Red dye: Human osteosarcoma U20S cells (40,000 cells/well) were seeded in a 24 well glass bottom plate (Sensoplate, Greiner Bio-One) and were incubated overnight in a humidified atmosphere at 37° C. and 5% CO2. Cells were grown in DMEM (Gibco) supplemented with 10% Fetal Bovine Serum (FBS) and 100 units/ml penicillin and 100 μg/ml streptomycin (Invitrogen). After the attachment period, cells were treated with different compounds of interest (at various concentrations in DMSO) or DMSO (non-treated control) in cell culture medium and were incubated for 24 hours. Compound-containing medium was removed and cells were incubated with pre-warmed cell culture medium containing 1× LysoView™ 633 (70058 and 70058-T, Biotium) or 50 nM LysoTracker™ Deep Red (L12492, ThermoFisher Scientific) for 45 minutes at 37° C. Finally, cell nuclei were stained for 10 minutes using Hoechst 33342 (1 μg/mL) and then the medium was replaced with fresh medium. The 24 well plate was then fitted into a heated stage on the microscope and cells maintained at 37° C. Images were captured using appropriate filter set for Cy5 and DAPI detection with the EVOS M7000 Microscope (ThermoFisher Scientific). The cellular phenotype was visually assessed for the induction of acidic vesicle formation relative to the non-treated control; multiple images were acquired and analyzed using ImageJ or Cell Profiler.

[1] abbreviates: read-out: Activity (percentage increase in acidic vesicle formation over the DMSO-treated control), Table 2.
The mark [2] stands for this setting: read-out: Activity (percentage increase in acidic vesicle formation), Table 2a Preferred compounds.

Consider `CC(C)N(C(=O)c1ccc(-c2cnn(-c3ccccc3)c2)[nH]1)C1CCNCC1` [Compound 5, 5-(1-phenyl-1H-pyrazol-4-yl)-N-(piperidin-4-yl)-N-(propan-2-yl)-1H-pyrrole-2-carboxamide], for which the activation at 0.8 µM under setting [1] is 30 to 50%. On the same count and under the same terms, next, `NC[C@H]1CCCN1C(=O)c1ccc(-c2cnn(-c3ccccc3)c2)o1` [Compound 11, 1-[(2R)-1-[5-(1-phenyl-1H-pyrazol-4-yl)furan-2-carbonyl]pyrrolidin-2-yl]methanamine]: 10 to 30%; `O=C(NC[C@@H]1CCNC1)c1cc(-c2cnn(-c3ccccc3)c2)cs1` [Compound 16, 4-(1-phenyl-1H-pyrazol-4-yl)-N-{[(3R)-pyrrolidin-3-yl]methyl}thiophene-2-carboxamide]: 10 to 30%; `NCCCCCNC(=O)c1cc(-c2cnn(-c3ccccc3)c2)cs1` [Compound 17, N-(5-aminopentyl)-4-(1-phenyl-1H-pyrazol-4-yl)thiophene-2-carboxamide]: 10 to 30%. For the molecule `CCCN(C(=O)c1csc(-c2cnn(-c3ccncc3)c2)n1)[C@@H]1CCNC1` [Compound 23, N-propyl-2-[1-(pyridin-4-yl)-1H-pyrazol-4-yl]-N-[(3R)-pyrrolidin-3-yl]-1,3-thiazole-4-carboxamide], the activation at 0.8 µM under setting [1] lay in the range of 10 to 30%. Turning to `CCCN(C(=O)c1csc(-c2cnn(-c3cccc(OC(F)(F)F)c3)c2)n1)[C@H]1CCNC1` [Compound 25, N-propyl-N-[(3S)-pyrrolidin-3-yl]-2-{1-[3-(trifluoromethoxy)phenyl]-1H-pyrazol-4-yl}-1,3-thiazole-4-carboxamide], the activation at 0.8 µM under setting [1] lay in the range of 10 to 30%. Take `CCCN(C(=O)c1csc(-c2cnn(-c3cccc(OC(F)(F)F)c3)c2)n1)[C@@H]1CCNC1` [Compound 26, N-propyl-N-[(3R)-pyrrolidin-3-yl]-2-{1-[3-(trifluoromethoxy)phenyl]-1H-pyrazol-4-yl}-1,3-thiazole-4-carboxamide]: under setting [1], the activation at 0.8 µM was in the range of 30 to 50%. Regarding `CCCN(C(=O)c1csc(-c2cnn(-c3cccc(C)c3)c2)n1)[C@H]1CCNC1` [Compound 28, 2-[1-(3-methylphenyl)-1H-pyrazol-4-yl]-N-propyl-N-[(3S)-pyrrolidin-3-yl]-1,3-thiazole-4-carboxamide], the activation at 0.8 µM under setting [1] is 10 to 30%. On to `CCCN(C(=O)c1csc(-c2cnn(-c3cccc(C)c3)c2)n1)[C@@H]1CCNC1` [Compound 29, 2-[1-(3-methylphenyl)-1H-pyrazol-4-yl]-N-propyl-N-[(3R)-pyrrolidin-3-yl]-1,3-thiazole-4-carboxamide], for which the activation at 0.8 µM under setting [1] lay within 30 to 50%. Consider `CCCN(C(=O)c1csc(-c2cnn(-c3cccc(Cl)c3)c2)n1)[C@H]1CCNC1` [Compound 31, 2-[1-(3-chlorophenyl)-1H-pyrazol-4-yl]-N-propyl-N-[(3S)-pyrrolidin-3-yl]-1,3-thiazole-4-carboxamide], for which the activation at 0.8 µM under setting [1] fell in the range of 10 to 30%.

Consider `CCCN(C(=O)c1csc(-c2cnc(-c3ccccc3)o2)n1)[C@H]1CCNC1` [Compound 35, 2-(2-phenyl-1,3-oxazol-5-yl)-N-propyl-N-[(3S)-pyrrolidin-3-yl]-1,3-thiazole-4-carboxamide], for which the activation at 0.8 µM under setting [1] fell in the range of 10 to 30%. Regarding `CCCN(C(=O)c1csc(-c2cnn(-c3ccccc3)c2)c1)[C@@H]1CCNC1` [Compound 36, 5-(1-phenyl-1H-pyrazol-4-yl)-N-propyl-N-[(3R)-pyrrolidin-3-yl]thiophene-3-carboxamide], the activation at 0.8 µM under setting [1] is 10 to 30%. `CCCN(C(=O)c1csc(-c2cnn(-c3ccc(Cl)cc3)c2)n1)[C@H]1CCNC1` [Compound 40, 2-[1-(4-chlorophenyl)-1H-pyrazol-4-yl]-N-propyl-N-[(3S)-pyrrolidin-3-yl]-1,3-thiazole-4-carboxamide]: the activation at 0.8 µM under setting [1] was in the range of 10 to 30%. Consider `CCCN(C(=O)c1csc(-c2cnn(-c3ccc(Cl)cc3)c2)n1)[C@@H]1CCNC1` [Compound 41, 2-[1-(4-chlorophenyl)-1H-pyrazol-4-yl]-N-propyl-N-[(3R)-pyrrolidin-3-yl]-1,3-thiazole-4-carboxamide], for which, under setting [1], the activation at 0.8 µM lay in the range of 10 to 30%. Take `CCCN(C(=O)c1csc(-c2cnn(-c3ccccc3)c2)c1)[C@H]1CCNC1` [Compound 42, 5-(1-phenyl-1H-pyrazol-4-yl)-N-propyl-N-[(3S)-pyrrolidin-3-yl]thiophene-3-carboxamide]: the activation at 0.8 µM under setting [1] lay in the range of 10 to 30%.

Take `CCCN(C(=O)c1csc(-c2cnn(-c3ccccn3)c2)n1)[C@H]1CCNC1` [Compound 43, N-propyl-2-[1-(pyridin-2-yl)-1H-pyrazol-4-yl]-N-[(3S)-pyrrolidin-3-yl]-1,3-thiazole-4-carboxamide]: the activation at 0.8 µM under setting [1] lay within 10 to 30%.

As to `CCCN(C(=O)c1csc(-c2cnn(-c3ccccn3)c2)n1)[C@@H]1CCNC1` [Compound 44, N-propyl-2-[1-(pyridin-2-yl)-1H-pyrazol-4-yl]-N-[(3R)-pyrrolidin-3-yl]-1,3-thiazole-4-carboxamide], the activation at 0.8 µM under setting [1] was in the range of 10 to 30%. The same measure, in the same setting: next, `CCCN(C(=O)c1csc(-c2cnn(-c3ccc(OC(F)(F)F)cc3)c2)n1)[C@H]1CCNC1` [Compound 45, N-propyl-N-[(3S)-pyrrolidin-3-yl]-2-{1-[4-(trifluoromethoxy)phenyl]-1H-pyrazol-4-yl}-1,3-thiazole-4-carboxamide]: 30 to 50%; `CCCN(C(=O)c1csc(-c2cnn(-c3ccc(OC(F)(F)F)cc3)c2)n1)[C@@H]1CCNC1` [Compound 46, N-propyl-N-[(3R)-pyrrolidin-3-yl]-2-{1-[4-(trifluoromethoxy)phenyl]-1H-pyrazol-4-yl}-1,3-thiazole-4-carboxamide]: 30 to 50%. On the same count and under the same terms, the figure for `CC(C)N(C(=O)c1csc(-c2cnn(-c3ccccc3C(F)(F)F)c2)n1)C1CCNCC1` [Compound 47, N-(piperidin-4-yl)-N-(propan-2-yl)-2-{1-[2-(trifluoromethyl)phenyl]-1H-pyrazol-4-yl}-1,3-thiazole-4-carboxamide] is 30 to 50%.

On to `CCCN(C(=O)c1csc(-c2cnn(-c3cccc(C(F)(F)F)c3)c2)n1)[C@H]1CCNC1` [Compound 48, N-propyl-N-[(3S)-pyrrolidin-3-yl]-2-{1-[3-(trifluoromethyl)phenyl]-1H-pyrazol-4-yl}-1,3-thiazole-4-carboxamide], for which the activation at 0.8 µM under setting [1] fell in the range of 50 to 100% and the activation at 0.8 µM under setting [2] fell in the range of 50 to 100%.

As for `CCCN(C(=O)c1csc(-c2cnn(-c3cccc(C(F)(F)F)c3)c2)n1)[C@@H]1CCNC1` [Compound 49, N-propyl-N-[(3R)-pyrrolidin-3-yl]-2-{1-[3-(trifluoromethyl)phenyl]-1H-pyrazol-4-yl}-1,3-thiazole-4-carboxamide], under setting [1], the activation at 0.8 µM lay in the range of 30 to 50%. Take `COc1cccc(-n2cc(-c3nc(C(=O)N4CCC[C@@H]4CN)cs3)cn2)c1` [Compound 50, 1-[(2R)-1-{2-[1-(3-methoxyphenyl)-1H-pyrazol-4-yl]-1,3-thiazole-4-carbonyl}pyrrolidin-2-yl]methanamine]: the activation at 0.8 µM by setting is: under setting [1], 50 to 100%; under setting [2], 50 to 100%. For `CCCN(C(=O)c1csc(-c2cnn(-c3cccc(OC)c3)c2)n1)[C@H]1CCNC1` [Compound 51, 2-[1-(3-methoxyphenyl)-1H-pyrazol-4-yl]-N-propyl-N-[(3S)-pyrrolidin-3-yl]-1,3-thiazole-4-carboxamide], the activation at 0.8 µM under setting [1] was 30 to 50%. Consider `CCCN(C(=O)c1csc(-c2cnn(-c3cccc(F)c3)c2)n1)[C@H]1CCNC1` [Compound 52, 2-[1-(3-fluorophenyl)-1H-pyrazol-4-yl]-N-propyl-N-[(3S)-pyrrolidin-3-yl]-1,3-thiazole-4-carboxamide], for which, under setting [1], the activation at 0.8 µM was in the range of 10 to 30%. Regarding `CCCN(C(=O)c1csc(-c2cnn(-c3cccc(F)c3)c2)n1)[C@@H]1CCNC1` [Compound 53, 2-[1-(3-fluorophenyl)-1H-pyrazol-4-yl]-N-propyl-N-[(3R)-pyrrolidin-3-yl]-1,3-thiazole-4-carboxamide], under setting [1], the activation at 0.8 µM was in the range of 10 to 30%.

As for `CCCN(C(=O)c1csc(-c2cnn(-c3ccc(F)cc3)c2)n1)[C@@H]1CCNC1` [Compound 54, 2-[1-(4-fluorophenyl)-1H-pyrazol-4-yl]-N-propyl-N-[(3R)-pyrrolidin-3-yl]-1,3-thiazole-4-carboxamide], under setting [1], the activation at 0.8 µM lay within 10 to 30%. On to `CCCN(C(=O)c1csc(-c2cnn(-c3cccc(OC)c3)c2)n1)[C@@H]1CCNC1` [Compound 56, 2-[1-(3-methoxyphenyl)-1H-pyrazol-4-yl]-N-propyl-N-[(3R)-pyrrolidin-3-yl]-1,3-thiazole-4-carboxamide], for which the activation at 0.8 µM under setting [1] was in the range of 10 to 30%. For the molecule `Cc1ccc(-n2cc(-c3nc(C(=O)N(C(C)C)C4CCNCC4)cs3)cn2)cc1` [Compound 57, 2-[1-(4-methylphenyl)-1H-pyrazol-4-yl]-N-(piperidin-4-yl)-N-(propan-2-yl)-1,3-thiazole-4-carboxamide], the activation at 0.8 µM under setting [1] is 30 to 50%.
